# Source: US6011010A, “Cytotoxic and antiviral compound” (Pharma Mar, s.a., priority 1997, dated 2000)
# Assays:
# [1] = In vitro cytotoxicity, human colon carcinoma HT-29 cell culture; format: cell-based; conditions: read-out: Cytotoxicity μg/mL (IC50)
# Method: (§1) The antitumor activities of this compound have been determinated "in vitro" in cell cultures of human lung carcinoma A-549 and human colon carcinoma HT-29. The procedure was carried out using the methodology described by Raymond J. Bergeron et al., Biochem. Biophys. Res. Comm. 1984, 121 (3), 848-854 and by Alan C. Schroeder et al., J. Med. Chem. 1981, […] 1078-1083.
# HSV II = conditions: Mv 1 Lu cells
# HSV-1 = conditions: CV-1 cells
# Saccharomyces cerevisiae = conditions: 50 μg/disk
# [2] = In vitro cytotoxicity, human lung carcinoma A-549 cell culture; format: cell-based; conditions: read-out: Cytotoxicity μg/mL (IC50)
# Method: as §1
smiles,measurement,setting,value
C/C=C1\NC(=O)[C@H](Cc2ccccc2)NC(=O)[C@@H](C(C)C)NC(=O)[C@@H]([C@@H](C)CC)NC(=O)[C@H](NC(=O)[C@H](NC(=O)[C@H](CCCN)NC(=O)[C@H]2CCCN2C(=O)[C@H](NC(=O)[C@@H](NC(=O)[C@@H](NC(=O)[C@H](NC(=O)CCCC(C)C)C(C)C)[C@@H](C)O)C(C)C)C(C)C)[C@@H](C)CC)[C@@H](C)OC(=O)[C@H](C(C)C)NC1=O [Kahalalide F],IC50,[1],0.25 to 0.5 µg/mL
same,Antiviral % reduction,HSV II; at 0.5 μg/mL,95%
same,Antiviral μg/mL (M.I.C.),HSV II; concentration giving the printed % reduction,0.5 µg/mL
same,Antiviral μg/mL (M.I.C.),VSV,> 8
same,Antiviral μg/mL (M.I.C.),HSV-1,> 8 µg/mL
same,Antifungal 6 mm disk (zone),Saccharomyces cerevisiae,neg
same,IC50,[2],2.5 µg/mL
